Source: US7605165B2, “Phenylalanine derivatives” (Ajinomoto Co., Inc., priority 2002, dated 2009)

Key:
integrin α4β1 = target: T1, integrin α4β1 (Homo sapiens, UniProt P05556+P13612); assay: Assessment of VCAM-1/α4β1 binding antagonist activity (Jurkat cells binding to VCAM-1); assay type: cell-based; conditions: Jurkat human T cells binding to recombinant human VCAM-1; read-out: integrin VCAM/α4 binding antagonistic activity (IC50) α4β1
T1 construct: cell strain Jurkat (ATCC TIB-152) of human T cells, known to express integrin α4β1; endogenous in cells; host or cells: Jurkat (ATCC TIB-152), human T cells
T1 sequence (P05556 21-798, one chain of several): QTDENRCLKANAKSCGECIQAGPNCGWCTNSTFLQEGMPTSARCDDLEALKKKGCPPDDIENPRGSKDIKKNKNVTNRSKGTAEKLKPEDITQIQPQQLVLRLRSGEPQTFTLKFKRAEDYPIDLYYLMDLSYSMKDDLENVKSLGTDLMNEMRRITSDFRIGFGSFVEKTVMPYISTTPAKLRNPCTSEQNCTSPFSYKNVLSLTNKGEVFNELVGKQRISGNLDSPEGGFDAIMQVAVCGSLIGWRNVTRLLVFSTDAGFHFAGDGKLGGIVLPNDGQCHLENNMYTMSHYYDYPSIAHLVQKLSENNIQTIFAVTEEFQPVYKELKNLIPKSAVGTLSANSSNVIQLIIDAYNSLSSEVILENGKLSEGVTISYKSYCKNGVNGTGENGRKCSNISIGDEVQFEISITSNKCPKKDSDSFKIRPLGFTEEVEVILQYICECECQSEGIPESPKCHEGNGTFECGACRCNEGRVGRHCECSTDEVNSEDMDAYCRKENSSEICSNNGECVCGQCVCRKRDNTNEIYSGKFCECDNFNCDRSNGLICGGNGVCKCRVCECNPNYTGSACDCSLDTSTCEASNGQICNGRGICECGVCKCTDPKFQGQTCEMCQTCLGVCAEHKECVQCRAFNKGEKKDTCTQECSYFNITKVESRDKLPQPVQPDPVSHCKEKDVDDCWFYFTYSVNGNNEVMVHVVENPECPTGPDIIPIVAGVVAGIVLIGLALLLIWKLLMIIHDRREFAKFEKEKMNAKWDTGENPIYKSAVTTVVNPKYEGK
Procedure: The capacity of a test substance antagonistic to the binding of cell strain Jurkat (ATCC TIB-152) of human T cells, known to express integrin α4β1, to VCAM-1 was determined.
(§1) 100 μl/well of a solution (500 ng/ml) of recombinant human VCAM-1 (R & D systems) solution diluted with buffer A (0.1 M NaHCO3, pH 9.6) was added to a micro titer plate having 96 wells (Nunc Maxisorp). After the incubation at 4° C. overnight, unbound VCAM-1 was removed by washing once with PBS. After completion of the washing, a buffer (buffer B) obtained by diluting Block Ace (Dainippon Pharmaceutical Co., Ltd.) with PBS to 1/4 concentration was added in an amount of 150 μl/well. After the incubation at room temperature for 1 hour, buffer B was removed and the plate was washed with PBS once.
Jurkat cells were washed with Dulbecco modified Eagle medium (SIGMA, hereinafter referred to as “DMEM”) twice and then incubated in DMEM containing 10 μg/ml of Calcein-AM (Wako Pure Chemical Industries, Ltd.) at 37° C. in dark place for 30 minutes to label with fluorescence. The cells were again suspended in a binding buffer (20 mM HEPES, DMEM containing 0.1% BSA).
(§2) 50 μl of a test substance of various concentrations obtained by the dilution with the binding buffer was added to the plate. Immediately thereafter, 50 μl (final volume: 100 μl/well) of the fluorescent Jurkat cells (4×10^6 cells/ml) were added thereto, and they were incubated in dark place at room temperature for 30 minutes. After the shaking on a plate shaker (IKA MTS-4) at 800 rpm for 30 seconds, the solution was immediately removed to remove the unbound cells. The fluorescence quantity of the bound cells remaining in the wells was determined with a fluorescent plate reader (Wallac 1420 ARVO multi-label counter) (filter excitation wave length: 485 nm, emission wave length: 535 nm). The fluorescent strength thus obtained is proportional to the number of Jurkat cells bound to VCAM-1 and remaining on the plate. The binding rate of each test material in various concentrations was determined while the fluorescent strength of the test material-free well was determined to be 100%.

integrin α4β7 = target: T2, integrin α4β7 (Homo sapiens, UniProt P13612+P26010); assay: Assessment of VCAM-1/α4β7 binding antagonistic activity (RPMI-8866 cells binding to VCAM-1); assay type: cell-based; conditions: RPMI-8866 human B lymphoma cells binding to recombinant human VCAM-1, binding buffer with 4 mM MnCl2; read-out: integrin VCAM/α4 binding antagonistic activity (IC50) α4β7
T2 construct: lymphoma cell strain RPMI-8866 of human B cells, known to express integrin α4β7; endogenous in cells; host or cells: RPMI-8866, human B-cell lymphoma line
T2 sequence (P13612 34-1032): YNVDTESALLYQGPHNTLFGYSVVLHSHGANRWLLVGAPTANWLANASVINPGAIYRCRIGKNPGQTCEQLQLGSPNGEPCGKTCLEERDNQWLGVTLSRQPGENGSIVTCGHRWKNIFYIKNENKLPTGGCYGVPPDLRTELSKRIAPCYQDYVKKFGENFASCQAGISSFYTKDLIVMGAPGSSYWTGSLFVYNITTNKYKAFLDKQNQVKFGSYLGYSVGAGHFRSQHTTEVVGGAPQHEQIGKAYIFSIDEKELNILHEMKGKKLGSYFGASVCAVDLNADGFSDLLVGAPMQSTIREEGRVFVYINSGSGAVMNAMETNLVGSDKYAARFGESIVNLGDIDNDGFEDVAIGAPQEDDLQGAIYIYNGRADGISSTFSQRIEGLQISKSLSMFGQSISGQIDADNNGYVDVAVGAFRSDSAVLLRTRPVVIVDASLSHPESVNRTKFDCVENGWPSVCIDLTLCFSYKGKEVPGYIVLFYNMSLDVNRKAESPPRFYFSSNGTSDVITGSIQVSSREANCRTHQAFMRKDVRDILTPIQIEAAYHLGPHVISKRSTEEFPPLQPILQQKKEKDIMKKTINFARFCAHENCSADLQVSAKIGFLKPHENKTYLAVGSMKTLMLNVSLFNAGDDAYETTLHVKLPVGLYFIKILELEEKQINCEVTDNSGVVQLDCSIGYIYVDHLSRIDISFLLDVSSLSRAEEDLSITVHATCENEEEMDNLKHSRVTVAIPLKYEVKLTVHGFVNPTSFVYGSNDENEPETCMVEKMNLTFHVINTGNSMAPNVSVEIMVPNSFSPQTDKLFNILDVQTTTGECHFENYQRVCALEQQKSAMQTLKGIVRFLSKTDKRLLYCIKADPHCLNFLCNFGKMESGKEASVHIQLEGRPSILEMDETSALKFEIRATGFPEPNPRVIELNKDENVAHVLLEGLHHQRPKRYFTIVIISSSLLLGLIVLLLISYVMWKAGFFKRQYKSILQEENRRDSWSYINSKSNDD
T2 sequence (P26010 20-798): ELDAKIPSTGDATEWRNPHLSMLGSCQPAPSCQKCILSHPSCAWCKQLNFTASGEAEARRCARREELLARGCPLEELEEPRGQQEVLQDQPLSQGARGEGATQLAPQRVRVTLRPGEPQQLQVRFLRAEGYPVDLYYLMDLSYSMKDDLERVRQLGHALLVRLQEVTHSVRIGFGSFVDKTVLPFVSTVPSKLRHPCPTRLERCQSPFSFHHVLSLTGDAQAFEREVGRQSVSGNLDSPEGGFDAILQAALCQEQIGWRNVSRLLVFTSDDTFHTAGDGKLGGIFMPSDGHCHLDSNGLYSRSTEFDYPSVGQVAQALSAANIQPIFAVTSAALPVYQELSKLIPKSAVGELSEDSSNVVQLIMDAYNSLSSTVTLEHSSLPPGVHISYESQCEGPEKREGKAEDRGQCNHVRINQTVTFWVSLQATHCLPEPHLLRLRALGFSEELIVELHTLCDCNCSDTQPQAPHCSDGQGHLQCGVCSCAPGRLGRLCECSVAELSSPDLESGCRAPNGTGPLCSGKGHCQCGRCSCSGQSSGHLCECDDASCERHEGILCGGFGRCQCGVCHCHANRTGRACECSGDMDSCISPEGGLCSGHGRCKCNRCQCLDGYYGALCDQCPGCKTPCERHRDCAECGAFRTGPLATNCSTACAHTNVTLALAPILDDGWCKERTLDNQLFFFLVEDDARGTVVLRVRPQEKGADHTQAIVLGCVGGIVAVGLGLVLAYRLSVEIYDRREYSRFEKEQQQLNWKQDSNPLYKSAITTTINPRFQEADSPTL
Procedure: The capacity of a test substance antagonistic to the binding of lymphoma cell strain RPMI-8866 of human B cells, known to express integrin α4β7, to VCAM-1 was determined.
as §1
RPMI-8866 cells were washed with DMEM twice and incubated in Dulbecco modified Eagle medium containing 10 μg/ml of Calcein-AM (Wako Pure Chemical Industries, Ltd.) (SIGMA, hereinafter referred to as “DMEM”) in dark place at 37° C. for 30 minutes to label with fluorescence. The cells were again suspended in a binding buffer (20 mM HEPES, DMEM containing 0.1% BSA) containing 4 mM of MnCl2.
as §2, with “RPMI-8866” for “Jurkat”

IC50 (integrin α4β1) [nM] | IC50 (integrin α4β7) [nM] | Compound
760 | 36 | O=C(N[C@@H](Cc1ccc(-n2c(=O)c3ccccc3n(Cc3ccc(Cl)c(Cl)c3)c2=O)cc1)C(=O)O)c1c(Cl)cccc1Cl [compound 115]
190 | 27 | O=C(N[C@@H](Cc1ccc(-n2c(=O)c3ccccc3n(Cc3c(Cl)cccc3Cl)c2=O)cc1)C(=O)O)c1c(Cl)cccc1Cl [Reference Example 114]
310 | 0.6 | O=C(N[C@@H](Cc1ccc(-n2c(=O)c3ccccc3n(Cc3ccccc3)c2=O)cc1)C(=O)O)c1c(Cl)cccc1Cl [compound 122]
80 | 3.3 | N#CCn1c(=O)n(-c2ccc(C[C@H](NC(=O)c3c(Cl)cccc3Cl)C(=O)O)cc2)c(=O)c2ccccc21 [Example 6]
450 | 35 | O=C(N[C@@H](Cc1ccc(-n2c(=O)c3ccccc3n(Cc3ccc(Cl)cc3Cl)c2=O)cc1)C(=O)O)c1c(Cl)cccc1Cl [compound 116]

More lines, now with the values behind:

Compound | IC50 (integrin α4β1) [nM] | IC50 (integrin α4β7) [nM]
Cn1c(=O)n(-c2ccc(C[C@H](NC(=O)c3c(Cl)cccc3Cl)C(=O)O)cc2)c(=O)c2cc(NC(=O)C(C)(C)C)ccc21 [compound 106] | 44 | 2.8
CCN(C)c1ccc2c(c1)c(=O)n(-c1ccc(C[C@H](NC(=O)c3c(Cl)cccc3Cl)C(=O)O)cc1)c(=O)n2C [compound 109] | 56 | 4.3
Cc1cccc(Cl)c1C(=O)N[C@@H](Cc1ccc(-n2c(=O)c3ccccc3n(C)c2=O)cc1)C(=O)O [Reference Example 162] | 34 | 0.2
O=C(N[C@@H](Cc1ccc(-n2nnc3ccc(F)cc3c2=O)cc1)C(=O)O)c1c(Cl)cccc1Cl [compound 85] | 230 | 25
Cn1c(=O)n(-c2ccc(C[C@H](NC(=O)c3c(Cl)cncc3Cl)C(=O)O)cc2)c(=O)c2ccccc21 [compound 169] | 6 | 0.5
O=C(N[C@@H](Cc1ccc(-n2c(=O)[nH]c3ncccc3c2=O)cc1)C(=O)O)c1c(Cl)cccc1Cl [compound 79] | 440 | 18
Cn1c(=O)n(-c2ccc(C[C@H](NC(=O)c3c(Cl)cccc3Br)C(=O)O)cc2)c(=O)c2ccccc21 [compound 165] | 11 | 0.6
COCC(=O)Nc1ccc2c(c1)c(=O)n(-c1ccc(C[C@H](NC(=O)c3c(Cl)cccc3Cl)C(=O)O)cc1)c(=O)n2C [compound 105] | 14 | 0.8
